Data from patent publication US7855196B2 (priority 2005, dated 2010).
Read-outs that look alike come from different tables or passages of the source.

What was measured:
[1] = Sedation / side effects observed in treated patients (clinical case examples)

Cc1nnc2n1-c1ccc(Cl)cc1C(c1ccccc1)=NC2 [alprazolam, 8-chloro-1-methyl-6-phenyl-4H-s-triazolo[4,3-a][1,4] benzodiazepine]
pain rating after treatment (human, in vivo): 4/10 | pain remission (human, in vivo): increased period of pain remission | pain response (human, in vivo): sustained results | sedation limiting augmentation of dosage ([1]; Example 1: alprazolam 0.5 mg TID and 2 mg HS): severe patient sedation | sedation limiting augmentation of dosage ([1]; Example 2: alprazolam 0.25 mg QID): severe sedation | side effects ([1]; Example 8: alprazolam 5 mg/day): experienced alprazolam side effects

CCOC(=O)c1ncn2c1CN(C)C(=O)c1cc(F)ccc1-2 [flumazenil]
low back pain after injection (Example 3: phantom-like pain, patient on alprazolam 6 mg a day, flumazenil 100 μg, 5 minutes after injection, before 7/10): 5/10 | effect on midazolam response to pain (Example 4: flumazenil 200 μg iv 5 minutes after midazolam 2 mg iv (ratio 10:1)): without altering the midazolam response to pain | pain after treatment (Example 5: flumazenil 200 μg iv after midazolam 2 mg iv, before 3/10): pain disappeared | pain 25 minutes after treatment (Example 8: further flumazenil 300 μg iv after midazolam 5 mg and flumazenil 500 μg, 25 minutes after treatment): 4/10 | pain rating after treatment (Example 8: further flumazenil 300 μg iv ten minutes later, after 5 minutes, before 5/10): 3/10 | pain level while moving arm (human, in vivo, iv): 1/10

Cc1ncc2n1-c1ccc(Cl)cc1C(c1ccccc1F)=NC2 [midazolam]
improvement of pain (human, in vivo, iv): 40% | level of pain after treatment (human, in vivo, iv): 3/10 | pain level after treatment (human, in vivo, iv): 0/10 | pain rating after treatment (human, in vivo, iv): 3/10 | sedation ([1]; Example 2: midazolam 2 mg iv): experienced sedation | sedation ([1]; Example 5: midazolam 2 mg iv): did not present any signs of sedation
